Results: PubChem BioAssay (NCI)
Where “and” joins values, the source holds several entries; their conditions need not be identical. Identical values can stand only once.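 How tested: cells in 96-well plates exposed to compound for 48 hours at five concentrations. The concentration for 50% growth inhibition is given as GI50. Definition used: TGI = concentration required for complete inhibition of growth.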

What was measured:
Assay in all cases: NCI tumour cell line growth inhibition, 48 h
HT29 colon = test system: HT29 colon
HCT-15 colon = test system: HCT-15 colon
HOP-62 NSCLC = test system: HOP-62 NSCLC
NCI/ADR-RES ovarian = test system: NCI/ADR-RES ovarian
COLO 205 colon = test system: COLO 205 colon
RXF 393 renal = test system: RXF 393 renal
PC-3 prostate = test system: PC-3 prostate
M14 melanoma = test system: M14 melanoma
MALME-3M melanoma = test system: MALME-3M melanoma
CCRF-CEM leukemia = test system: CCRF-CEM leukemia
HOP-92 NSCLC = test system: HOP-92 NSCLC
CAKI-1 renal = test system: CAKI-1 renal
UO-31 renal = test system: UO-31 renal
ACHN renal = test system: ACHN renal
OVCAR-4 ovarian = test system: OVCAR-4 ovarian
SK-MEL-2 melanoma = test system: SK-MEL-2 melanoma
OVCAR-3 ovarian = test system: OVCAR-3 ovarian
IGROV1 ovarian = test system: IGROV1 ovarian
OVCAR-8 ovarian = test system: OVCAR-8 ovarian
SF-539 CNS = test system: SF-539 CNS
SK-MEL-5 melanoma = test system: SK-MEL-5 melanoma
KM12 colon = test system: KM12 colon
BT-549 breast = test system: BT-549 breast
K-562 leukemia = test system: K-562 leukemia
SF-268 CNS = test system: SF-268 CNS
T-47D breast = test system: T-47D breast
UACC-62 melanoma = test system: UACC-62 melanoma
TK-10 renal = test system: TK-10 renal
HL-60(TB) leukemia = test system: HL-60(TB) leukemia
U251 CNS = test system: U251 CNS
HCC-2998 colon = test system: HCC-2998 colon
SNB-19 CNS = test system: SNB-19 CNS
SK-MEL-28 melanoma = test system: SK-MEL-28 melanoma
SN12C renal = test system: SN12C renal
NCI-H522 lung = test system: NCI-H522 lung
MDA-MB-231 breast = test system: MDA-MB-231 breast
UACC-257 melanoma = test system: UACC-257 melanoma
786-0 renal = test system: 786-0 renal
MDA-N = test system: MDA-N
SW-620 colon = test system: SW-620 colon
NCI-H23 lung = test system: NCI-H23 lung
EKVX NSCLC = test system: EKVX NSCLC
A549 NSCLC = test system: A549 NSCLC
MDA-MB-435 = test system: MDA-MB-435
NCI-H226 lung = test system: NCI-H226 lung
HCT-116 colon = test system: HCT-116 colon
MCF7 breast = test system: MCF7 breast
SNB-75 CNS = test system: SNB-75 CNS
LOX IMVI melanoma = test system: LOX IMVI melanoma
NCI-H460 lung = test system: NCI-H460 lung
RPMI-8226 leukemia = test system: RPMI-8226 leukemia
OVCAR-5 ovarian = test system: OVCAR-5 ovarian
DU-145 prostate = test system: DU-145 prostate
MOLT-4 leukemia = test system: MOLT-4 leukemia
SR leukemia = test system: SR leukemia
A498 renal = test system: A498 renal
SK-OV-3 ovarian = test system: SK-OV-3 ovarian
SF-295 CNS = test system: SF-295 CNS
HS 578T breast = test system: HS 578T breast

Q: What does the source list for `CCCCCC(O)C(O)CCC[C@H](O)[C@H]1CC[C@H]([C@H]2CC[C@H]([C@H](O)CCCCCCCCCCCCC3=C[C@H](C)OC3=O)O2)O1` (stereo partly drawn)?
A: TGI (HT29 colon): 8.31 µM; GI50 (HCT-15 colon): 5.48 µM; TGI (HCT-15 colon): 40.6 µM; GI50 (HOP-62 NSCLC): 15.2 µM; TGI (HOP-62 NSCLC): 32 µM; GI50 (NCI/ADR-RES ovarian): 2.75 µM; TGI (NCI/ADR-RES ovarian): 8.99 µM and 29.1 µM; TGI (COLO 205 colon): 14.2 µM; GI50 (RXF 393 renal): 11.1 µM; TGI (RXF 393 renal): 30.9 µM; GI50 (PC-3 prostate): 9.15 µM; TGI (PC-3 prostate): 25.4 µM; GI50 (M14 melanoma): 6.98 µM; TGI (M14 melanoma): 29.9 µM; TGI (MALME-3M melanoma): 29.8 µM; TGI (CCRF-CEM leukemia): 8.35 µM; TGI (HOP-92 NSCLC): 61.7 µM; GI50 (CAKI-1 renal): 15.3 µM; TGI (CAKI-1 renal): 36.5 µM; GI50 (UO-31 renal): 4.46 µM; TGI (UO-31 renal): 5.67 µM and 20.5 µM; GI50 (ACHN renal): 2.41 µM; TGI (ACHN renal): 6.27 µM and 20.8 µM; TGI (OVCAR-4 ovarian): 24.1 µM; GI50 (SK-MEL-2 melanoma): 15.8 µM; TGI (SK-MEL-2 melanoma): 5.16 µM and 37.4 µM; GI50 (OVCAR-3 ovarian): 12.3 µM; TGI (OVCAR-3 ovarian): 8.38 µM and 31.6 µM; GI50 (IGROV1 ovarian): 7.46 µM; TGI (IGROV1 ovarian): 29.4 µM; GI50 (OVCAR-8 ovarian): 7.24 µM; TGI (OVCAR-8 ovarian): > 100 µM; GI50 (SF-539 CNS): 12.1 µM; TGI (SF-539 CNS): 37 µM; TGI (SK-MEL-5 melanoma): 3.82 µM and 3.07 µM; GI50 (KM12 colon): 9.78 µM; TGI (KM12 colon): 29.1 µM; TGI (BT-549 breast): 2.79 µM and 25.5 µM; TGI (K-562 leukemia): 6.4 µM; GI50 (SF-268 CNS): 12.4 µM; TGI (SF-268 CNS): 40.8 µM; GI50 (T-47D breast): 2.12 µM; TGI (T-47D breast): 25.6 µM; TGI (UACC-62 melanoma): 7.54 µM; GI50 (TK-10 renal): 6.83 µM; TGI (TK-10 renal): 26.2 µM; TGI (HL-60(TB) leukemia): 4.28 µM; GI50 (U251 CNS): 8.47 µM; TGI (U251 CNS): > 100 µM; TGI (HCC-2998 colon): 41.3 µM; GI50 (SNB-19 CNS): 4.61 µM; TGI (SNB-19 CNS): 21.4 µM; GI50 (SK-MEL-28 melanoma): 14.7 µM; TGI (SK-MEL-28 melanoma): 73 µM; GI50 (SN12C renal): 13.6 µM; TGI (SN12C renal): 66.6 µM; TGI (NCI-H522 lung): 23.9 µM; GI50 (MDA-MB-231 breast): 17.6 µM; TGI (MDA-MB-231 breast): 82.9 µM; GI50 (UACC-257 melanoma): 1.29 µM; TGI (UACC-257 melanoma): 8.7 µM and 18.6 µM; GI50 (786-0 renal): 11.1 µM; TGI (786-0 renal): 30.8 µM; GI50 (MDA-N): 4.19 µM; TGI (MDA-N): 23.5 µM; GI50 (SW-620 colon): 7.51 µM; TGI (SW-620 colon): > 100 µM; TGI (NCI-H23 lung): 23.3 µM; GI50 (EKVX NSCLC): 6.94 µM; TGI (EKVX NSCLC): 26.4 µM; GI50 (A549 NSCLC): 3.48 µM; TGI (A549 NSCLC): > 100 µM; GI50 (MDA-MB-435): 6.84 µM; GI50 (NCI-H226 lung): 5.25 µM; TGI (NCI-H226 lung): 35.9 µM; GI50 (HCT-116 colon): 0.0933 µM; TGI (HCT-116 colon): 38.7 µM; GI50 (MCF7 breast): 3.78 µM; TGI (MCF7 breast): 31.4 µM; GI50 (SNB-75 CNS): 15.2 µM; TGI (SNB-75 CNS): 37.9 µM; GI50 (LOX IMVI melanoma): 1.76 µM; TGI (LOX IMVI melanoma): 2.93 µM and 14.4 µM; GI50 (NCI-H460 lung): 1.69 µM; TGI (NCI-H460 lung): 31.7 µM; TGI (RPMI-8226 leukemia): 4.51 µM; TGI (OVCAR-5 ovarian): 35.4 µM

Q: `CCOC(=O)CCC(C(=O)OCC)n1nnc2cc(Nc3c(C)[n+]([O-])c4cc(F)c(OCC)cc4[n+]3[O-])ccc21` (stereo not drawn) was tested. Which TGI (DU-145 prostate) did it give?
A: > 100 µM

Q: What about the TGI (HT29 colon) of the same molecule?
A: > 100 µM

Q: What about the TGI (HCT-15 colon) of the same molecule?
A: > 100 µM

Q: What about the TGI (HOP-62 NSCLC) of the same molecule?
A: > 100 µM

Q: What about the TGI (NCI/ADR-RES ovarian) of the same molecule?
A: > 100 µM

Q: What about the TGI (COLO 205 colon) of the same molecule?
A: > 100 µM

Q: And the TGI (RXF 393 renal)?
A: 38.7 µM

Q: What about the TGI (PC-3 prostate) of the same molecule?
A: > 100 µM

Q: What about the TGI (M14 melanoma) of the same molecule?
A: > 100 µM

Q: And the TGI (MALME-3M melanoma)?
A: > 100 µM

Q: And the TGI (CCRF-CEM leukemia)?
A: > 100 µM

Q: And the TGI (HOP-92 NSCLC)?
A: 88.8 µM

Q: What about the TGI (CAKI-1 renal) of the same molecule?
A: > 100 µM

Q: What about the TGI (UO-31 renal) of the same molecule?
A: > 100 µM

Q: And the TGI (ACHN renal)?
A: > 100 µM

Q: And the TGI (OVCAR-4 ovarian)?
A: > 100 µM

Q: And the TGI (SK-MEL-2 melanoma)?
A: > 100 µM

Q: And the TGI (OVCAR-3 ovarian)?
A: > 100 µM

Q: What about the TGI (IGROV1 ovarian) of the same molecule?
A: > 100 µM

Q: And the TGI (OVCAR-8 ovarian)?
A: > 100 µM

Q: What about the TGI (SF-539 CNS) of the same molecule?
A: > 100 µM

Q: What about the TGI (SK-MEL-5 melanoma) of the same molecule?
A: > 100 µM

Q: And the TGI (KM12 colon)?
A: > 100 µM

Q: What about the TGI (BT-549 breast) of the same molecule?
A: > 100 µM

Q: What about the TGI (K-562 leukemia) of the same molecule?
A: > 100 µM

Q: What about the TGI (SF-268 CNS) of the same molecule?
A: 94.9 µM

Q: And the TGI (MOLT-4 leukemia)?
A: > 100 µM

Q: And the TGI (T-47D breast)?
A: > 100 µM

Q: What about the TGI (SR leukemia) of the same molecule?
A: > 100 µM

Q: What about the TGI (A498 renal) of the same molecule?
A: > 100 µM

Q: And the TGI (UACC-62 melanoma)?
A: > 100 µM

Q: What about the TGI (TK-10 renal) of the same molecule?
A: > 100 µM

Q: What about the TGI (HL-60(TB) leukemia) of the same molecule?
A: > 100 µM

Q: And the TGI (U251 CNS)?
A: > 100 µM

Q: What about the TGI (SNB-19 CNS) of the same molecule?
A: > 100 µM

Q: And the TGI (SN12C renal)?
A: > 100 µM

Q: And the TGI (NCI-H522 lung)?
A: > 100 µM

Q: And the TGI (UACC-257 melanoma)?
A: > 100 µM

Q: And the TGI (786-0 renal)?
A: > 100 µM

Q: What about the TGI (MDA-N) of the same molecule?
A: > 100 µM

Q: What about the TGI (SW-620 colon) of the same molecule?
A: > 100 µM

Q: What about the TGI (NCI-H23 lung) of the same molecule?
A: > 100 µM

Q: What about the TGI (SK-OV-3 ovarian) of the same molecule?
A: > 100 µM

Q: And the TGI (SF-295 CNS)?
A: > 100 µM

Q: And the TGI (EKVX NSCLC)?
A: > 100 µM

Q: And the TGI (HS 578T breast)?
A: > 100 µM

Q: What about the TGI (A549 NSCLC) of the same molecule?
A: > 100 µM

Q: And the TGI (MDA-MB-435)?
A: > 100 µM

Q: What about the TGI (NCI-H226 lung) of the same molecule?
A: > 100 µM

Q: And the TGI (HCT-116 colon)?
A: > 100 µM

Q: And the TGI (MCF7 breast)?
A: > 100 µM

Q: What about the TGI (SNB-75 CNS) of the same molecule?
A: 57.2 µM

Q: What about the TGI (LOX IMVI melanoma) of the same molecule?
A: > 100 µM

Q: What about the TGI (NCI-H460 lung) of the same molecule?
A: > 100 µM

Q: And the TGI (RPMI-8226 leukemia)?
A: > 100 µM

Q: And the TGI (OVCAR-5 ovarian)?
A: > 100 µM
